# Measured values from patent publication US9101582B2, “Use of a pneumococcal P4 peptide for enhancing opsonophagocytosis in response to a pathogen” (priority 2008, dated 2015).
# Where “and” joins values, the source holds several entries; their conditions need not be identical. Equal values may be shown once. Entries after “also recorded” stand apart in the source; their conditions may differ. Ends that are not written are not given here.
# What was measured:
# [1] = tested on: S. pneumoniae serotype 3 (WU2); experiment: Combination therapy of moribund mice after intranasal S. pneumoniae WU2 infection (Example 2); assay type: in vivo
# From the text: S. pneumoniae serotype 3 (WU2) was used for mouse infections as described previously (Rajam et al. J. Infect. Dis. 199:1233-1238, 1999). P4, a 28-amino-acid peptide, was synthesized, purified, and prepared for combination therapy as described previously (Carlone et al. Microb. Pathog. 44:186-196, 2008). Gamma globulin (intravenous immunoglobulin [IVIG]; Gamunex, Telecris, N.C.) was used as a source of Pnc serotype-specific polysaccharide antibodies (Frasch and Scott Clin. Diagn. Lab. Immunol. 11:1158-1164, 2004; Rajam et al., Clin. Vaccine Immunol. 14:1223-1227, 2007; Romero-Steiner et al., Clin. Diagn. Lab. Immunol. 10:1019-1024, 2003). Ceftriaxone (catalog no. C5793; Sigma-Aldrich, St. Louis, Mo.), an expanded-spectrum cephalosporin, was dissolved in phosphate-buffered saline (0.01 M), and working dilutions in phosphate-buffered saline were made for mouse inoculations.
# Female Swiss Webster mice (Charles River Laboratories, Wilmington, Mass.) 6 to 10 weeks of age were used in this study. All experiments were approved by the Institutional Animal Care and Use Committee (IACUC) and conducted according to the institutional ethical guidelines for animal experiments and safety guidelines.
# Intranasal infections of mice with a Pnc isolate were carried out by adopting the methodology described by Briles et al., 2003. Briefly, a mouse was injected intraperitoneally (ip) with 20 μl of 100-mg/ml ketamine hydrochloride (KETASET®; Wyeth). Once the mouse was lethargic, 40 μl of the bacterial suspension (˜2.1×10^7 cells/mouse) was dispensed drop by drop close to the nose, allowing the mouse to inhale the bacteria. Scruffiness combined with a hunched posture or lethargy indicated moribundity in a mouse. […] Control groups included untreated animals or animals that received P4 alone, IVIG alone, or ceftriaxone (at 0.3, 3.0, 300, or 3,000 μg/mouse) alone. Treatment groups included mice that received a single inoculum containing P4 and IVIG with or without ceftriaxone at one of three different doses (0.3, 3.0, or 300 μg/mouse).
# Mice were restrained using a Tailveiner restrainer (model no. TV-150; Braintree Scientific, Braintree, Mass.). IVIG and/or P4 was administered intravenously (iv) using a 25-gauge needle and a 1-ml syringe. IVIG (100-μl volume/mouse) was administered first, followed 20 min later by P4 (50 μg in a 100-μl volume/mouse). Ceftriaxone was administered (ip in a 100-μl volume/mouse) 30 min after P4 administration. Animals were monitored daily for 7 days or (in the repeat infection study) 36 days post treatment for clinical signs of disease progression. For repeat therapy, mice rescued with P4 combination therapy were reinfected on day 28 post treatment and treated again with P4 combination therapy.
# The in vivo combination therapy experiments were repeated three to five times, and repeat therapy was performed once. The numbers of moribund animals up to 7 and 36 days after the combination and repeat therapies, respectively, were recorded, and the data were analyzed for significant differences among various groups by using the paired two-sample t test for means in MICROSOFT® Excel 2003.
# P4 toxicity test in mice = assay type: in vivo; conditions: ip, 1, 10, 100 and 1000 μg/mouse; 10-week-old ND4-SW mice
# Protocol: At 72 hours, all the infected mice were moribund (n=60; moribund score, 2-3 [see below]). At 72 and 96 hours after infection, 40 animals were passively immunized with gamma globulin (100 μL/mouse; iv, n=20; ip, n=20). After a time lapse of 20 minutes, allowing for possible preopsonization in vivo, 20 of the passively immunized mice (intravenous (iv), n=10; intraperitoneal (ip), n=10) received P4 (100 μg; 100 μL/mouse) through an iv or ip route. Control mice were given DEPC water (100 μL) or P4 alone. Initially, P4 peptide was tested for toxicity in mice at 1, 10, 100, and 1000 μg. P4 was injected ip into 10-week-old ND4-SW mice at a constant volume of 100 μL.
# [2] = tested on: S. pneumoniae serotype 3 (WU2); experiment: Opsonophagocytic killing (OPK) assay with HL-60 cells differentiated into granulocytes; assay type: cell-based, Streptococcus pneumoniae
# HL-60-derived monocytes = experiment: fOPA, OPU of N. meningitidis A Ps-coated beads; assay type: cell-based, human; conditions: P4 100 μg/mL; QC268 serum; FIG. 2C
# Protocol: (§1) The flow cytometric opsonophagocytic assay (fOPA) was performed with HL-60 cells differentiated into granulocytes or monocytes as described by Martinez et al., Clin Diagn Lab Immunol 9:485-8, 2002; Martinez et al., Clin Vaccine Immunol 13:459-66, 2006; and Mezzatesta et al., Infect Immun 42:99-105, 1983. In-house quality-control sera (QC5 and QC268) were used as a source for serotypespecific antibodies against the capsular Ps of S. pneumoniae serotype 14 and Neisseria meningitides A, respectively. Polystyrene beads were covalently linked to S. pneumoniae and non-S. pneumoniae antigens, as described by Martinez et al., Clin Diagn Lab Immunol 9:485-8, 2002; and Martinez et al., Clin Vaccine Immunol 13:459-66, 2006 and used in fOPA.
# [3] = tested on: freshly isolated granulocytes from human blood; experiment: fOPA, opsonophagocytic uptake (OPU) of S. pneumoniae serotype 14 Ps-coated beads; assay type: cell-based; conditions: P4 100 μg/mL
# Protocol: as §1
# Heparinized venous blood was obtained from the Emory Blood Donor Services. A leukocyte separation kit, HISTOPAQUE®-1119 (Sigma), was used to separate granulocytes from the blood, in accordance with the method recommended by the manufacturer.
# [4] = tested on: S. pneumoniae serotype 3 (WU2); experiment: Test for bacteremia in blood of treated mice; assay type: in vivo; conditions: P4-treated mice
# Protocol: Blood samples from P4-treated and untreated mice were collected (Rajam et al., J. Infect. Dis. 199:1233-1238, 2009), and […] aliquots of the heparinized blood samples were spread onto plates of blood agar (blood agar base plus 5% sheep blood plus gentamicin [2.5 mg/liter]). The plates were incubated for 18 to 24 hours at 37° C. in 5% CO^2, and bacteria were counted.
# anti-P4 IgG = conditions: serum 14 days post infection from mice treated with P4 therapy
# Protocol: Blood samples from mice treated with P4 therapy were collected 14 days post infection, and the serum fractions were separated by adopting the methodology described previously (Rajam, 2009). An enzyme-linked immunosorbent assay (ELISA) was performed to detect and quantify antiprotein immunoglobulin G (IgG) as described previously, with minor modifications (Scott, et al., Clin. Diagn. Lab. Immunol. 12:1195-1201, 2005; Scott et al., J. Infect. Dis. 186:220-226, 2002). Briefly, ELISA plates were coated with the P4 peptide at a 5-μg/ml concentration. Plates were incubated at 4° C. overnight and used to detect and quantify anti-P4 IgG in mouse sera. Horseradish peroxidase-labeled anti-mouse IgG (Sigma, St. Louis, Mo.) was used as the reporter antibody. SUREBLUE® 3,3′,5,5′-tetramethylbenzidine (KPL, Gaithersburg, Md.) was used as the substrate, and 1 N HCl was used as the stop solution. Samples were assayed in triplicate, and suitable positive and negative controls were included.
# [5] = tested on: HL-60-derived granulocytes; experiment: Flow cytometric opsonophagocytic assay (fOPA), respiratory burst with OXYBURST-labeled S. pneumoniae serotype 23F; assay type: cell-based, human; conditions: P4 100 μg/mL; QC2 serum; titrated out with antibody dilution; FIG. 2A
# Protocol: as §1
# A loopful of the frozen stock of S. pneumoniae serotype 23F was grown overnight (37° C. in 5% CO2) in Todd-Hewitt broth (Difco) supplemented with 0.5% yeast extract (THYE). A loopful of the overnight culture was transferred to 1 mL of fresh THYE broth and incubated for 3 hours. From this, 200 μL was transferred to 5 mL of THYE broth and incubated for 3 hours, after which 1 mL was transferred to 5 mL of THYE broth and incubated for another 3 hours (all incubations were done at 37° C. in 5% CO2). After the third passage, the bacterial suspension was centrifuged at 6000 g for 10 minutes and resuspended in 1 mL of 0.01 mol/L phosphate buffered saline (PBS). […]
# [6] = tested on: S. pneumoniae serotype 3 (WU2); conditions: P4 100 μg/ml; PMNs from infected (1 and 2 hours postinfection) or uninfected mice; gamma globulin as IgG source; P<0.05
# Protocol: We used the in vitro opsonophagocytic killing assay (OPKA) as described previously by Romero-Steiner et al. (Romero-Steiner et al., Clin. Diagn. Lab. Immunol. 4:415-422, 1997) with polymorphonuclear leukocytes (PMNs) isolated from mice (Devi et al., Indian J. Physiol. Pharmacol. 39:354-360, 1995). Peripheral blood samples were collected from mice 1 and 2 hours postinfection (with Pnc WU2) or from uninfected controls as described previously (Frasch and Scott, 2004), and the buffy coat fractions were separated (Devi et al, 1995) and used as the source of effector cells. Gamma globulin (Gamunex, Telecris, N.C.) was used as the serotype-specific antibody source. S. pneumoniae serotype 3 (WU2) was propagated, stored, and used in this assay as described previously (Rajam et al., 2007; Romero-Steiner, 2006). A 100-μg/ml P4 peptide solution was added to the OPKA mixture at the preopsonization stage, and the control wells received diethyl pyrocarbonate water.
molecule,measurement,setting,value
"CO/N=C(\C(=O)N[C@@H]1C(=O)N2C(C(=O)O)=C(CSc3nc(=O)c(=O)[nH]n3C)CS[C@H]12)c1csc(N)n1 [ceftriaxone, Ceftriaxone]",protection (survival comparable to untreated controls),[1]; ceftriaxone alone 0.3 μg ip,poor protection
same,protection (survival comparable to untreated controls),[1]; ceftriaxone alone 3.0 μg ip,poor protection
same,protection (survival comparable to untreated controls),[1]; ceftriaxone alone 300 μg ip,poor protection
same,survival rate,"[1]; ceftriaxone alone 3,000 μg ip, 168 hours",90%
LFVESSVKRRPMKTVSQDTNIPIYAQIF [P4],toxic effect on mice,P4 toxicity test in mice,no apparent toxic effect
same,P4-mediated change in OPK over control,"[2]; P4 5 μg/mL, gamma globulin 1:8, FIG. 1C",no change in OPK
same,P4-mediated increase in OPK over control,"[2]; P4 10 μg/mL, gamma globulin 1:8, FIG. 1C",8%
same,P4-mediated increase in OPK over control,"[2]; P4 50 μg/mL, gamma globulin 1:8, FIG. 1C",30%
same,P4-mediated increase in OPK over control,"[2]; P4 100 μg/mL, gamma globulin 1:8, FIG. 1C",35%
same,P4-mediated increase in OPK over control,"[2]; absence of a complement source (heat-inactivated complement), FIG. 1B",no increase in OPK
same,P4-mediated increase in OPK over control,"[2]; gamma globulin 1:8 dilution, P4 100 μg/mL, FIG. 1A",35%
same,P4-mediated increase in OPK over control,"[2]; gamma globulin 1:32 dilution, FIG. 1A",paralleling the results obtained for controls
same,OPU of N. meningitidis A Ps-coated beads,HL-60-derived monocytes,increase in the OPU; also recorded: increased the OPU
same,protection (survival comparable to untreated controls),[1]; P4 alone,poor protection
same,increase in OPU of S. pneumoniae serotype 14 Ps beads,[3]; antibody dilution 1:64,52%
same,increase in OPU of S. pneumoniae serotype 14 Ps beads,[3]; antibody dilution 1:128,48%
same,increase in OPU of S. pneumoniae serotype 14 Ps beads,[3]; antibody dilution 1:256,25%
same,increase in OPU of S. pneumoniae serotype 14 Ps beads,[3]; antibody dilution 1:512,5%
same,OPU of S. pneumoniae serotype 14 Ps-coated beads (in words),"[3]; in the presence of QC2, FIG. 2B legend",increased the OPU
same,increase in OPU of S. pneumoniae serotype 14 Ps beads,"[3]; overall figure, FIG. 2B",50%
same,bacteremia in blood samples,[4],no bacteremia
same,anti-P4 IgG in serum,anti-P4 IgG,negative
same,intraphagocytic respiratory burst (OXYBURST signal),[5],increase in the intraphagocytic respiratory burst; also recorded: increased the respiratory burst
same,increase in opsonophagocytic killing over control,[6],> 80% and 80%
